Measurements taken from US20230284627A1, “ANTIMICROBIAL COMPOSITIONS AND METHODS OF USE AND FOR MAKING SAME” (MIG USA, LLC, priority 2020, published 2023).

Test system: Escherichia coli ATCC-25922, Klebsiella pneumonia ATCC-4352, Canadida albicans ATCC-10231, Pseudomonas aeruginosa ATCC-9027, Staphylococcus aureus ATCC-6538
Test: Lawn-spray assay of AM635 disinfectant spray in SDS (Example 5)
Assay type: cell-based
Details: portions of the untreated area were also clear of bacterial growth
Description: The efficacy of 0.5-2% SDS solutions (in DiH2O)+0.1-10% Silver 1-Methyl imidazole were tested by performing a lawn-spray assay. The Silver 1-Methylimidazole Complex 635 (AM635) disinfectant sprays in SDS were prepared as described in Example 4. Briefly, a lawn of bacteria/yeast from a newly grown broth culture were inoculated onto their preferred agar media by dipping a swab into each broth, fully wetting the swab end, then swiping the swab back-and-forth from the top to the bottom of the plate, then turning the plate for a ¼ turn and re-streaking from top to bottom again. This technique ensures for total coverage of the inoculating bacteria/yeast across the face of the agar media. The dish was then opened and a paper towel placed over the top of the plate to cover only half of the surface while not touching the agar surface, so that the other half is exposed to the air. This exposed half was then treated with 2-pumps from a spray bottle containing the AM635 in SDS composition, ensuring that the exposed half of the plate was saturated by the test product. Each plate was treated using the same 2-pump criteria. All plates were then incubated “agar-down” overnight at 37° C. to allow the bacteria to fully grow (at 30° C. for yeast). […]

## CCCCCCCCCCCCOS(=O)(=O)[O-].[Na+] [SDS, Sodium Dodecyl Sulfate]
  effect on untreated area of lawn plate: hypermigration effect
